Legend:
[1] = Copper titration with Murexide indicator; type: physicochemical; conditions: 2 g (0.009 mmol) in 100 mL water, 0.01 molar copper chloride, approximately pH 8, sodium acetate buffer
Experimental: Copper titration value is used to measure the extent of biodegradation of the chelating agents during the procedure. Titration is performed using ammonium purpurate (indicator for complexometric titration, commercially available from Aldrich Chemical Co., Inc. under the trade designation Murexide) at approximately pH 8, and using sodium acetate as buffer. Titration of […] N-[2-(carboxymethoxy)ethyl]-N-(carboxymethyl)glycine (0.009 mmol) in 100 mL water with 0.01 molar copper chloride gives an endpoint of 0.99 mL, representing a 1:1 chelation of copper. Analysis is performed daily for a period of 28 days.

[2] = Calcium oxalate titration (calcium chelation capacity); type: physicochemical
Experimental: The applicability of N-[2-(carboxymethoxy)ethyl]-N-(carboxymethyl)glycine for use in hard surface cleaners, is measured by the calcium oxalate titration.
For titration with calcium oxalate, N-[2-(carboxymethoxy)ethyl]-N-(carboxymethyl)glycine (between 1 to 2 millimoles) is placed in a 60 mL beaker. After the addition of 30 mL deionized water and 5 mL of a 3% ammonium oxalate solution, the pH is slowly brought to about 10 by the addition of 20% sodium hydroxide while stirring. The pH is then adjusted to about 11.6 with sodium hydroxide and the solution is titrated with 0.1 M CaCl2 to the first permanent turbidity. The chelation valve is then determined from the mL of titrant used based on the following calculation.
Chelation Value=(mL titrant used×molarity titrant)×100 mg CaCO3 per mmole÷sample wt. in grams×activity of sample (as acid form)
The chelation value is the mg of CaCO3 that can be chelated by one active gram of a chelant, such as N-[2-(carboxymethoxy)ethyl]-N-(carboxymethyl)glycine (IX).
The turbidity produced in the oxalate titration is due to the formation of calcium oxalate. The results for the titration of N-[2-(carboxymethoxy)ethyl]-N-(carboxymethyl)glycine in the presence of oxalate is compared with iminodiacetic acid (IDA) and given in Table II below.

Copper titration endpoint [1]: 0.99 mL
Chelation value compared with IDA (in words) [2]: far superior to IDA
Chelation Value ([2]; pH about 11.6, 0.1 M CaCl2 to first permanent turbidity): 423 mg of CaCO3 per active gram of
SMILES: O=C(O)COCCN(CC(=O)O)CC(=O)O [(IX), N-[2-(carboxymethoxy)ethyl]-N-(carboxymethyl)glycine]

Source: patent US6627772B2, “Preparation of N-[2-(carboxymethoxy) ethyl]-N-(carboxymethyl) glycine” (The Dow Chemical Company, priority 1999, dated 2003)
